Assay [1] relates to Escherichia coli. Description: Antibacterial activity against Escherichia coli 06 assessed as bacterial growth inhibition incubated for 24 hrs by broth microdilution method. It counts as functional. A general note: In broth dilution the organism is exposed to a series of concentrations in liquid medium.
Assay [2] relates to Pseudomonas aeruginosa. Description: Antibacterial activity against Pseudomonas aeruginosa 24 assessed as bacterial growth inhibition incubated for 24 hrs by broth microdilution method. It counts as functional.
The subject of assay [3] is Staphylococcus aureus. Description: Antibacterial activity against Staphylococcus aureus 10 assessed as bacterial growth inhibition incubated for 24 hrs by broth microdilution method. It is filed as functional.
Assay [4] deals with Staphylococcus aureus. Description: Synergistic antibacterial activity against Staphylococcus aureus 1199B overexpressing NorA gene assessed as fractional inhibitory concentration index at 128 ug/ml in presence of norfloxacin. It counts as functional. As to conditions: dose 128 µg/ml.
For assay [5], the system named is Staphylococcus aureus. Description: Synergistic antibacterial activity against Staphylococcus aureus RN4220 assessed as fractional Inhibitory concentration index at 64 ug/ml in presence of norfloxacin by broth dilution method. It is filed as functional. As to conditions: dose 64 µg/ml.
Assay [6] concerns Staphylococcus aureus. Description: Synergistic antibacterial activity against Staphylococcus aureus 1199B overexpressing NorA assessed as fractional Inhibitory concentration index at 64 ug/ml in presence of norfloxacin by broth dilution method. As to conditions: dose 64 µg/ml. It is filed as functional.
For assay [7], the system named is Staphylococcus aureus. Description: Antibacterial activity against Staphylococcus aureus ATCC25923 assessed as bacterial growth inhibition incubated for 18 hrs by MTT assay. It counts as functional.
Assay [8] concerns Staphylococcus aureus. Description: Antibacterial activity against Staphylococcus aureus 1199B overexpressing NorA assessed as bacterial growth inhibition incubated for 18 hrs by MTT assay. It is filed as functional. For orientation: Formazan colour is commonly taken as a measure of viable cells.
The test system of assay [9] is Staphylococcus aureus. Description: Antibacterial activity against tetracycline-resistant Staphylococcus aureus XU212 assessed as bacterial growth inhibition incubated for 18 hrs by MTT assay. It is filed as functional.
Assay [10] concerns Staphylococcus aureus. Description: Antibacterial activity against Staphylococcus aureus EMRSA-16 assessed as bacterial growth inhibition incubated for 18 hrs by MTT assay. It is filed as functional.
For assay [11], the system named is Staphylococcus aureus. Description: Antibacterial activity against Staphylococcus aureus EMRSA-15 assessed as bacterial growth inhibition incubated for 18 hrs by MTT assay. It counts as functional.
Assay [12] relates to Staphylococcus aureus. Description: Antibacterial activity against Staphylococcus aureus RN4220 assessed as bacterial growth inhibition incubated for 18 hrs by MTT assay. It is filed as functional.
For assay [13], the target named is T1, Quinolone resistance protein NorA (Staphylococcus aureus) (UniProt P0A0J7).
T1 sequence (whole entry): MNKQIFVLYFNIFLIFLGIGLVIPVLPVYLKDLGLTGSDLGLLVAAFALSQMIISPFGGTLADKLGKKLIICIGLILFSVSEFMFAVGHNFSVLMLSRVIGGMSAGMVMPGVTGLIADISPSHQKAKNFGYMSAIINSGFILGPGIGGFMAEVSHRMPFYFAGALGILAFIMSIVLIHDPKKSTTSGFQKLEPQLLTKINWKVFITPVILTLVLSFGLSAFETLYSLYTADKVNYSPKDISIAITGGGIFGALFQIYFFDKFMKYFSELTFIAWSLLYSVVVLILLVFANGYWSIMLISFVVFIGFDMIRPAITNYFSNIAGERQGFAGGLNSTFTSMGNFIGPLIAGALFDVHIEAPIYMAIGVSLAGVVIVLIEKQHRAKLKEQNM
To be noted: 1199B, dose 64.0 µg/ml.

The subject of assay [14] is Staphylococcus aureus. Description: Synergistic antibacterial activity against Staphylococcus aureus EMRSA-15 assessed as fractional Inhibitory concentration index at 64 ug/ml in presence of norfloxacin by broth dilution method. As to conditions: dose 64 µg/ml. It counts as functional.
In assay [15] the test system is Staphylococcus aureus. Description: Antibacterial activity against Staphylococcus aureus ATCC 25923 assessed as bacterial growth inhibition incubated for 24 hrs by resazurin based microdilution test. It counts as functional. Background: Resazurin is reduced to fluorescent resorufin, in cell work by metabolically active cells.
Assay [16] has as its system Staphylococcus aureus. Description: Antibacterial activity against norfloxacin resistant Staphylococcus aureus 1199B harboring NorA efflux pump gene assessed as bacterial growth inhibition incubated for 24 hrs by resazurin based microdilution test. It is filed as functional.
Assay [17] deals with Escherichia coli. Description: Antibacterial activity against Escherichia coli ATCC 25922 assessed as bacterial growth inhibition incubated for 24 hrs by resazurin based microdilution test. It counts as functional.
Assay [18] deals with Staphylococcus aureus. Description: Antibacterial activity against norfloxacin resistant Staphylococcus aureus 1199B harboring NorA efflux pump assessed as bacterial growth inhibition incubated for 24 hrs by CLSI protocol based broth microdilution method. It is filed as functional.
For assay [19], the target named is T1, Quinolone resistance protein NorA (Staphylococcus aureus). Description: Modulation of norfloxacin-induced inhibition of NorA efflux pump in Staphylococcus aureus 1199B overexpressing NorA efflux pump assessed as reduction in norfloxacin MIC at 1/4 times of MIC by resazurin based assay.
Assay [20] relates to Vibrio cholerae. Description: Antimicrobial activity against Vibrio cholerae assessed as bacterial growth inhibition incubated for 18 to 24 hrs by broth microdilution method. It counts as functional. As to conditions: time 18-24 hrs.
Assay [21] deals with Enterococcus faecalis. Description: Antimicrobial activity against Enterococcus faecalis assessed as bacterial growth inhibition incubated for 18 to 24 hrs by broth microdilution method. It counts as functional. To be noted: time 18-24 hrs.
For assay [22], the system named is Proteus vulgaris. Description: Antimicrobial activity against Proteus vulgaris assessed as bacterial growth inhibition incubated for 18 to 24 hrs by broth microdilution method. It counts as functional. To be noted: time 18-24 hrs.
For assay [23], the system named is Proteus mirabilis. Description: Antimicrobial activity against Proteus mirabilis assessed as bacterial growth inhibition incubated for 18 to 24 hrs by broth microdilution method. It counts as functional. As to conditions: time 18-24 hrs.
Assay [24] relates to Escherichia coli. Description: Antimicrobial activity against Escherichia coli assessed as bacterial growth inhibition incubated for 18 to 24 hrs by broth microdilution method. It counts as functional. To be noted: time 18-24 hrs.
Assay [25] has as its system Pseudomonas aeruginosa. Description: Antimicrobial activity against Pseudomonas aeruginosa assessed as bacterial growth inhibition incubated for 18 to 24 hrs by broth microdilution method. It is filed as functional. As to conditions: time 18-24 hrs.
For assay [26], the system named is Shigella dysenteriae. Description: Antimicrobial activity against Shigella dysenteriae assessed as bacterial growth inhibition incubated for 18 to 24 hrs by broth microdilution method. It counts as functional. To be noted: time 18-24 hrs.
The subject of assay [27] is Klebsiella pneumoniae. Description: Antimicrobial activity against Klebsiella pneumoniae assessed as bacterial growth inhibition incubated for 18 to 24 hrs by broth microdilution method. It is filed as functional. To be noted: time 18-24 hrs.
Assay [28] has as its system Staphylococcus aureus. Description: Antimicrobial activity against Staphylococcus aureus assessed as bacterial growth inhibition incubated for 18 to 24 hrs by broth microdilution method. As to conditions: time 18-24 hrs. It counts as functional.
The test system of assay [29] is Bacillus subtilis. Description: Antimicrobial activity against Bacillus subtilis assessed as bacterial growth inhibition incubated for 18 to 24 hrs by broth microdilution method. To be noted: time 18-24 hrs. It is filed as functional.
Assay [30] deals with Staphylococcus aureus. Description: Antibacterial activity against methicillin-resistant Staphylococcus aureus 1199 assessed as bacterial growth inhibition incubated for 24 hrs by resazurin based broth dilution method. It is filed as functional.
For assay [31], the system named is Staphylococcus aureus. Description: Potentiation of erythromycin-induced inhibition of MsrA pump in Staphylococcus aureus RN4220/pUL5054 assessed as reduction in erythromycin MIC incubated for 24 hrs by Resazurin based assay (RVB= 645.08 ug/ml).
The test system of assay [32] is Staphylococcus aureus. Description: Antibacterial activity against methicillin-resistant Staphylococcus aureus RN4220/pUL5054 overexpressing MsrA efflux pump assessed as bacterial growth inhibition incubated for 24 hrs by resazurin based broth dilution method. It is filed as functional.
In assay [33] the test system is Staphylococcus aureus. As to conditions: IS-58, time 24.0 hrs.
The target in assay [34] is T1, Quinolone resistance protein NorA (Staphylococcus aureus). To be noted: 1199B, time 24.0 hrs.
Assay [35] relates to Staphylococcus aureus. Description: Antibacterial activity against Staphylococcus aureus IS-58 overexpressing TetK pump assessed as bacterial growth inhibition incubated for 24 hrs by resazurin based broth dilution method. It counts as functional.
For assay [36], the system named is Staphylococcus aureus. As to conditions: IS-58, time 24.0 hrs. The source holds these as a separate data set.
In assay [37] the test system is Staphylococcus aureus. Description: Antibacterial activity against methicillin-resistant Staphylococcus aureus 1199B overexpressing NorA efflux pump assessed as bacterial growth inhibition incubated for 24 hrs by resazurin based broth dilution method. It is filed as functional.
Assay [38] concerns the target T1, Quinolone resistance protein NorA (Staphylococcus aureus). To be noted: 1199B, time 24.0 hrs. This is another data set of the same source.
For assay [39], the system named is Staphylococcus aureus. Description: Synergistic antibacterial activity against Staphylococcus aureus 1199B overexpressing NorA efflux pump assessed as fractional inhibitory concentration index in presence of norfloxacin by chequer board assay. It is filed as functional.

Values after ≈ are worked out from the molar mass of the structure shown.

Take `C=C1CC/C=C(\C)CC[C@@H]2[C@@H]1CC2(C)C` [BETA-CARYOPHYLLENE]: the MIC is ≥ 1020 µg/mL in [1], ≥ 1020 µg/mL in [2] and 32 µg/mL (≈ 157 µM) in assay [3].
Take `COc1cc(-c2oc3cc(OC)c(OC)c(O)c3c(=O)c2OC)ccc1O` [CHRYSOSPLENOL B]: the “fractional inhibitory concentration index (FICI)” value in assay [4] was 0.375.
As for `COc1ccc(-c2cc(=O)c3c(O)cc(O)cc3o2)cc1O` [DIOSMETIN], the “fractional inhibitory concentration index (FICI)” value is given as 0.38 in [5], 0.38 in assay [6] and 0.09 in assay [14]. The MIC in assay [7] came to 32 µg/mL (≈ 107 µM); in [8] it was 32 µg/mL (≈ 107 µM); in assay [9], 32 µg/mL (≈ 107 µM); in [10], 8 µg/mL (≈ 26.6 µM); in assay [11], 32 µg/mL (≈ 107 µM); in assay [12], 32 µg/mL (≈ 107 µM). Besides, in assay [13], the MIC worked out at 16 µg/mL (≈ 53.3 µM).
Consider `Oc1ccc2c(c1)O[C@H](c1ccc(O)c(O)c1)[C@@H](O)C2` [FISETINIDOL], for which the MIC in [15], in assay [16] and in assay [17] was ≥ 1020 µg/mL each time.
Regarding `O=c1c(O)c(-c2cc(O)c(O)c(O)c2)oc2cc(O)cc(O)c12` [MYRICETIN], the MIC in [18] was determined as 256 µg/mL (≈ 804 µM); in assay [19] it was 256 µg/mL.
Regarding `COc1cc(O)c2c(c1)O[C@H](c1ccccc1)CC2=O` [PINOSTROBIN], the MIC is 24 µg/mL (≈ 88.8 µM) in assay [20]; 12 µg/mL (≈ 44.4 µM) in [21]; 18 µg/mL (≈ 66.6 µM) in assay [22]; 32 µg/mL (≈ 118 µM) in assay [23]; 12 µg/mL (≈ 44.4 µM) in assay [24]; 32 µg/mL (≈ 118 µM) in assay [25]. Further, the MIC was 12 µg/mL (≈ 44.4 µM) in [26], 18 µg/mL (≈ 66.6 µM) in assay [27], 64 µg/mL (≈ 237 µM) in assay [28] and 12 µg/mL (≈ 44.4 µM) in assay [29].
Regarding `O=c1c(O)c(-c2ccc(O)c(O)c2)oc2cc(O)cc(O)c12` [QUERCETIN], the MIC is ≥ 1020 µg/mL in [30]; 512 µg/mL in [31]; ≥ 1020 µg/mL in assay [32]; 12.7 µg/mL (≈ 42 µM) in assay [33]; 128 µg/mL (≈ 424 µM) in assay [34]; 512 µg/mL (≈ 1690 µM) in assay [35]. The MIC was 128 µg/mL (≈ 424 µM) in [36], ≥ 1020 µg/mL in assay [37] and 12.7 µg/mL (≈ 42 µM) in assay [38].
For the molecule `C=C(C)[C@H](CC=C(C)C)Cc1c(O)cc(O)c2c1O[C@H](c1ccc(O)cc1O)CC2=O` [SOPHORAFLAVANONE G], the “fractional inhibitory concentration index (FICI)” value in assay [39] is 0.188.

These data come from ChEMBL document CHEMBL5244281, “Tackling multidrug-resistant Staphylococcus aureus by natural products and their analogues acting as NorA efflux pump inhibitors” (Bioorg Med Chem, 2023).
